Source: US5914338A, “Heterocyclic compounds and their preparation and use” (Novo Nordisk, priority 1996, dated 1999)
Where a name gives a salt, the structure may show the parent alone. Read-outs that look alike come from different tables or passages of the source.

Key:
[1] = target: T1, subtype of muscarinic receptors (M1-site, pirenzepine sensitive site), rat cerebral cortex membranes (Rattus norvegicus, UniProt P08482); assay: inhibition of ^3 H-PRZ (pirenzepine, [N-methyl-^3 H]) binding to rat cerebral cortex membranes; parameters: species or system rat (male Wistar)
T1 construct: Fresh cortex (0.1-1 g) from male Wistar rats (150-200 g) is homogenized; from tissue; host or cells: fresh cerebral cortex membranes of male Wistar rats
T1 sequence (P08482 1-460): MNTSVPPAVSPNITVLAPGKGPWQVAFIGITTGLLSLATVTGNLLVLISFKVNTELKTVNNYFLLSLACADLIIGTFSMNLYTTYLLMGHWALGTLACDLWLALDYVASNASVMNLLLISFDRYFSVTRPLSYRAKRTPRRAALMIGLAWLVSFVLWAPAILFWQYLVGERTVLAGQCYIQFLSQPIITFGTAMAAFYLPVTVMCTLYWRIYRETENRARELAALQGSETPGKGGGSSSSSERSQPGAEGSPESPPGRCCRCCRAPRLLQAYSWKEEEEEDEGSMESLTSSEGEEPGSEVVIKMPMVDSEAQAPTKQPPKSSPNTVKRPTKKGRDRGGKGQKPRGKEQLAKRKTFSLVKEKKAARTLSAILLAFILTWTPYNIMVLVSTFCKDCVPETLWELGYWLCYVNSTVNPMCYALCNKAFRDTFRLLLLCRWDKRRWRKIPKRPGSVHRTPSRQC
Procedure: Furthermore, the pharmacological properties of the compounds of the invention can also be illustrated by determining their capability to inhibit ^3 H-PRZ (pirenzepine, [N-methyl-^3 H]) binding to rat cerebral cortex membranes. Pirenzepine binds selectively to subtype of muscarinic receptors. Historically the type is named the M1 -site, whereas pirenzepine sensitive site would be more appropriate.
(§1) All preparations are performed at 0-4° C. unless otherwise indicated. Fresh cortex (0.1-1 g) from male Wistar rats (150-200 g) is homogenized for 5-10 s. in 10 ml 20 mM Hepes pH: 7.4, with an Ultra-Turraxhomogenizer. The homogenizer is rinsed with 2×10 ml of buffer and the combined suspension centrifuged for 15 min at 40,000×g. The pellet is washed three times with buffer. In each step the pellet is homogenized as before in 3×10 ml of buffer and centrifuged for 10 min at 40,000×g.
The final pellet is homogenized in 20 mM Hepes pH: 7.4 (100 ml per g of original tissue) and used for binding assay. Aliquots of 0.5 ml is added 20 μl of test solution and 25 μl of ^3 H-Pirenzepine (1.0 nM, final conc.), mixed and incubated for 60 min at 20° C. Non-specificbinding is determined in triplicate using atropine (1 μg/ml, final conc.) as the test substance. After incubation samples are added 5 ml of ice-cold buffer and poured directly onto Whatman GF/C glass fibre filters under suction and immediately washed 2 times with 5 ml of ice-cold buffer. The amount of radioactivity on the filters are determined by conventional liquid scintillation counting. Specific binding is total binding minus non-specific binding.
Test substances are dissolved in 10 ml water, at a concentration of 0.22 mg/ml. 25-75% inhibition of specific binding must be obtained before calculation of IC50.
The test value will be given as IC50 (the concentration (nM) of the test substance which inhibits the specific binding of ^3 H-PRZ by 50%) .
(§2) IC50 =(applied test substance concentration) x(Cx /Co
(§3) where Co is specific binding in control assays and Cx is the specific binding in the test assay. (The calculations assume normal mass-action kinetics).

[2] = target: muscarinic acetylcholine receptors; assay: inhibition of specific binding of ^3 H-Oxotremorine-M (^3 H-Oxo), fresh rat cortex; parameters: species or system rat (male Wistar); conditions: ^3 H-Oxotremorine 1.0 nM, 30 min at 25° C, pH 7.4
From the text: The pharmacological properties of the compounds of the invention can be illustrated by determining their capability to inhibit the specific binding of ^3 H-Oxotremorine-M (^3 H-Oxo). Birdsdall N. J. M., Hulme E. C., and Burgen A. S. V. (1980). "The Character of Muscarinic Receptors in Different Regions of the Rat Brain". Proc. Roy. Soc. London (Series B) 207,1.
^3 H-Oxo labels muscarinic receptor in the CNS (with a preference for agonist domains of the receptors). Three different sites are labelled by ^3 H-Oxo. […] Using the present experimental conditions only the high and medium affinity sites are determined.
The inhibitory effects of compounds on ^3 H-Oxo binding reflects the affinity for muscarinic acetylcholine receptors.
as §1, with “(150-250” for “(150-200”, “s” for “s.”, “Ultra-Turrax homogenizer.” for “Ultra-Turraxhomogenizer.”, “10” for “2×10”, “min.” for “min”, “2×10” for “3×10”
The final pellet is homogenized in 20 mM Hepes pH: 7.4 (100 ml per g of original tissue) and used for binding assay. Aliquots of 0.5 ml is added 25 μl of test solution and 25 μl of ^3 H-Oxotremorine (1.0 nM, final concentration) mixed and incubated for 30 min. at 25° C. Non-specific is determined in triplicate using arecoline (1 μg/ml, final concentration) as the test substance. After incubation samples are added 5 ml of ice-cold buffer and poured directly onto Whatman GF/C glass fiber filters under suction and immediately washed 2 times with 5 ml of ice-cold buffer. The amount of radioactivity on the filters are determined by conventional liquid scintillation counting. Specific binding is total binding minus non specific binding.
Test substances are dissolved in 10 ml water (if necessary heated on a steambath for less than 5 min.) at a concentration of 2.2 mg/ml. 25-75% inhibition of specific binding must be obtained before calculation of IC50.
The test value will be given as IC50 (the concentration (nM) of the test substance which inhibits the specific binding of ^3 H-Oxo by 50%) .
as §2, §3

[3] = target: muscarinic receptor in the CNS; conditions: read-out: affinity of site labelled by ^3 H-Oxo, cited from earlier work
[4] = system: M1-sites; conditions: cited from earlier work
[5] = system: M2-sites; conditions: cited from earlier work
[6] = ^3 H-Pirenzepine 1.0 nM, rat cortex, 60 min at 20° C, pH 7.4, read-out: ^3 H-PRZ IC50

Row | Compound | IC50 [2] | IC50 [1, 6] | also measured
1 | CCCSc1nsnc1C12CN3CC1C2C3 [Compound 2, 1-(3-Propylthio-1,2,5-thiadiazol-4-yl)-4-azatricyclo[2.2.1.0^2,6]heptane, oxalate] | 0.0043 µM | – | IC50 [1]: 0.1 µM
2 | FC(F)(F)CCSc1nsnc1C12CN3CC1C2C3 [Compound 3, 1-(3,3,3-Trifluoropropylthio-1,2,5-thiadiazol-4-yl)-4-azatricyclo[2.2.1.0^2,6]heptane, oxalate] | 0.014 µM | 0.245 µM | –
3 | N#Cc1ccc(CSc2nsnc2C23CN4CC2C3C4)cc1 [Compound 4, 1-[3-(4-Cyanobenzylthio)-1,2,5-thiadiazol-4-yl]-4-azatricyclo[2.2.1.0^2,6]heptane, oxalate] | 0.041 µM | 0.5 µM | –
4 | Fc1ccc(C#CCOc2nsnc2C23CN4CC2C3C4)cc1 [Compound 6, 1-(3-[3-(4-Fluorophenyl)-2-propynyl-1-oxy]-1,2,5-thiadiazol-4-yl)-4-azatricyclo[2.2.1.0^2,6]heptane, oxalate] | 0.017 µM | 0.093 µM | –
5 | C(#Cc1ccccc1)COc1nsnc1C12CN3CC1C2C3 [Compound 7, 1-[3-(3-Phenyl-2-propynyl-1-oxy)-1,2,5-thiadiazol-4-yl]-4-azatricyclo[2.2.1.0^2,6]heptane, oxalate] | 0.026 µM | 0.183 µM | –
6 | C(#Cc1ccsc1)COc1nsnc1C12CN3CC1C2C3 [Compound 8, 1-(3-[3-(3-Thienyl)-2-propyn-1-yloxy]-1,2,5-thiadiazol-4-yl)-4-azatricyclo[2.2.1.0^2,6]heptane, oxalate] | 0.0087 µM | 0.18 µM | –
7 | C(#Cc1cccs1)COc1nsnc1C12CN3CC1C2C3 [Compound 9, 1-(3-[3-(2-Thienyl)-2-propyn-1-yloxy]-1,2,5-thiadiazol-4-yl)-4-azatricyclo[2.2.1.0^2,6]heptane, oxalate] | 0.015 µM | 0.284 µM | –
8 | COc1cccc(C#CCOc2nsnc2C23CN4CC2C3C4)c1 [Compound 10, 1-(3-[3-(3-Methoxyphenyl)-2-propyn-1-yloxy]-1,2,5-thiadiazol-4-yl)-4-azatricyclo[2.2.1.0^2,6]heptane, hydrochloride] | 0.025 µM | 0.326 µM | –
9 | C(#Cc1cccnc1)COc1nsnc1C12CN3CC1C2C3 [Compound 11, 1-(3-[3-(3-Pyridyl)-2-propyn-1-yloxy]-1,2,5-thiadiazol-4-yl)-4-azatricyclo[2.2.1.0^2,6]heptane, oxalate] | 0.006 µM | 0.4 µM | –
10 | C[N+](C)(C)CC#CCN1CCCC1=O [^3 H-Oxo, ^3 H-Oxotremorine-M] | – | – | Kd ([3]; first (high affinity) site): 0.0018 µM; Kd ([3]; second (medium affinity) site): 0.02 µM; Kd ([3]; third site, not determined under the present conditions): 3 µM
11 | CN1CCN(CC(=O)N2c3ccccc3C(=O)Nc3cccnc32)CC1 [pirenzepine] | – | – | selectivity for M1-sites [4]: selective for M1 -sites; interaction with M2-sites [5]: also interact with M2 -sites
